This note sets out measurements from PMC4303311 (Biochemistry, 2014).

This assay deals with T1, bacteriorhodopsin (BR) (Halobacterium salinarum, UniProt P02945).
T1 sequence (P02945 14-262): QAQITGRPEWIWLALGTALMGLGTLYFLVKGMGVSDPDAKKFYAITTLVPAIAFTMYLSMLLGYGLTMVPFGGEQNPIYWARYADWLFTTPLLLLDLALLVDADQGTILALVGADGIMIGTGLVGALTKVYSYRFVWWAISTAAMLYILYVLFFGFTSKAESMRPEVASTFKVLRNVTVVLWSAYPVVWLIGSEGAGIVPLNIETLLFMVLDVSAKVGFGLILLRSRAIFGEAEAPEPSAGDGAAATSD
Put plainly: low-temperature FTIR-difference spectroscopy. The format is binding. The note with it: covalent; protonated Schiff base; 80 K; native purple membrane.

`CC1=C(/C=C/C(C)=C/C=C/C(C)=C/C=O)C(C)(C)CCC1` [A1 retinal, all-trans-retinal]: the “low-temperature FTIR-difference spectroscopy” value is “Negative bands appear at similar frequencies in the FTIR-difference spectrum of CaChR1 and BR”.
